Measured values: patent publication US11053248B2, “[1,2,4]triazolo[1,5-a]pyrimidine compounds as PDE2 inhibitors” (Janssen Pharmaceutica NV, priority 2016, dated 2021)
Read-outs that look alike come from different tables or passages of the source.

Experiments:
[1] = molecular target: T1, hPDE2A (Homo sapiens, UniProt O00408); assay: In vitro assay PDE2A (SPA, 3H-cGMP); format: biochemical; details: for Emax: read-out: hPDE2A Emax
T1 construct: made in house; host or cells: Sf9 insect cells (baculovirus)
Description: Human recombinant PDE2A (hPDE2A) was expressed in Sf9 cells using a recombinant rPDE10A baculovirus construct. Cells were harvested after 48 h of infection and the hPDE2A protein was purified by metal chelate chromatography on Ni-sepharose 6FF. Tested compounds were dissolved and diluted in 100% DMSO to a concentration 100 fold of the final concentration in the assay. Compound dilutions (0.4 μl) were added in 384 well plates to 20 μl of incubation buffer (50 mM Tris pH 7.8, 8.3 mM MgCl2, 1.7 mM EGTA). 10 μl of hPDE2A enzyme in incubation buffer was added and the reaction was started by addition of 10 μl substrate to a final concentration of 10 μM cGMP and 0.01 μCi ^3H-cGMP. The reaction was incubated for 45 minutes at room temperature. […] After sedimentation of the beads during 30 minutes the radioactivity was measured in a Perkin Elmer Topcount scintillation counter and results were expressed as cpm. For blanc values the enzyme was omitted from the reaction and replaced by incubation buffer. Control values were obtained by addition of a final concentration of 1% DMSO instead of compound.

[2] = test system: hPDE3B; assay: In vitro assay PDE3 (SPA, 3H-cAMP); format: biochemical, human; set-up: hPDE3B Emax: unit not given here; details: for hPDE3B pIC50: 0.4 μM cAMP substrate
[3] = molecular target: hPDE10A2 (Homo sapiens, UniProt Q9Y233); assay: biochemical; details: for IC50: 60 nM cAMP substrate, read-out: hPDE10A2 pIC50 (converted); for Emax: read-out: hPDE10A2 Emax
Description: Rat recombinant PDE10A (rPDE10A2) was expressed in Sf9 cells using a recombinant rPDE10A baculovirus construct. Cells were harvested after 48 h of infection and the rPDE10A protein was purified by metal chelate chromatography on Ni-sepharose 6FF. Tested compounds were dissolved and diluted in 100% DMSO to a concentration 100 fold of the final concentration in the assay. Human recombinant PDE10A […] was expressed in Sf9 cells using a recombinant hPDE10A baculovirus that was made and amplified in house. Cells were harvested after 72 h of infection and the hPDE10A protein was purified by metal chelate chromatography on Ni-sepharose. Compound dilutions (0.4 μl) were added in 384 well plates to 20 μl of incubation buffer (50 mM Tris pH 7.8, 8.3 mM MgCl2, 1.7 mM EGTA). […] of rPDE10A or hPDE10A enzyme in incubation buffer was added and the reaction was started by addition of 10 μl substrate to a final concentration of 60 nM cAMP and 0.008 μCi ^3H-cAMP. The reaction was incubated for 60 minutes at room temperature. […] After sedimentation of the beads during 30 minutes the radioactivity was measured in a Perkin Elmer Topcount scintillation counter and results were expressed as cpm. For blanc values the enzyme was omitted from the reaction and replaced by incubation buffer. Control values were obtained by addition of a final concentration of 1% DMSO instead of compound.

[4] = molecular target: T2, PDE2A (Rattus norvegicus, UniProt Q01062); assay: PDE2 occupancy by ex-vivo autoradiography with [3H]B-17a; format: in vivo; details: rat
T2 construct: from tissue; host or cells: rat brain striatal sections (ex vivo)
T2 sequence (Q01062 1-928): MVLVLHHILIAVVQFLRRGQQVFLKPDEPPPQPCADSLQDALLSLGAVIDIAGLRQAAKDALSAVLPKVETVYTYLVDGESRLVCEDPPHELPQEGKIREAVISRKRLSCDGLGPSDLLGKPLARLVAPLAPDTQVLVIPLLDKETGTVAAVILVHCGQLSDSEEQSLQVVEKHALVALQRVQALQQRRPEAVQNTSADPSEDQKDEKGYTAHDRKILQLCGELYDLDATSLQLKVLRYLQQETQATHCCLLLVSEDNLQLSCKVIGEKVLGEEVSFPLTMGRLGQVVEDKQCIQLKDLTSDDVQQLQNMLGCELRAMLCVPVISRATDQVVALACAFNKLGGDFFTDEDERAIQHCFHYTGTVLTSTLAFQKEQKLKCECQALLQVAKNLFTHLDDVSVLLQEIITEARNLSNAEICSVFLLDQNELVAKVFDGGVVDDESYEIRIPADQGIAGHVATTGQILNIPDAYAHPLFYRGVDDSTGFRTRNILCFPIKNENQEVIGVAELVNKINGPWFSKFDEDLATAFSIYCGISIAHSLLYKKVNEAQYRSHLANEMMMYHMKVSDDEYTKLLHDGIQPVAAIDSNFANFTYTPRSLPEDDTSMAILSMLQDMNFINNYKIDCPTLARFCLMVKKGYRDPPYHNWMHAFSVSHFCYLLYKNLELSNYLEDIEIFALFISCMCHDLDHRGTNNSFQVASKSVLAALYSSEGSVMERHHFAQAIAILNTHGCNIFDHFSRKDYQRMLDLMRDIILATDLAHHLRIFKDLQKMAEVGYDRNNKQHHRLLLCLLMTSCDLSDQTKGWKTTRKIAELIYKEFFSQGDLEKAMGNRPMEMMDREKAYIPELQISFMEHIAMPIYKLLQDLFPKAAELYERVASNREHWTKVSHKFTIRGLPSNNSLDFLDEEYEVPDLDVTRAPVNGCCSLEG
Description: PDE2 Occupancy by Test Compounds Methods
Brains were immediately removed from the skull and rapidly frozen in dry-ice cooled 2-methylbutane (−40° C.).
After thawing, sections were dried under a cold stream of air and incubated for one minute with 30 nM [^3H]B-17a in Tris-HCl (50 mM, pH7.4) containing 0.3% BSA. Brain sections from drug-treated and vehicle-treated animals were incubated in parallel. […] After incubation, the excess of [^3H]B-17a was washed off in ice-cold buffer 2 times 10 minutes, followed by a quick dip in distilled water. The sections were then dried under a stream of cold air.
Brain sections were loaded in a β-imager (Biospace, Paris) for 4 h and radioactivity emerging from delineated brain area was quantified using the Beta vision program (Biospace, Paris). Specific binding was determined as the difference between total binding in the striatum and non-specific binding in the cerebellum. Percentage receptor occupancy of the drug administered to the animal corresponded to 100% minus the percentage receptor labeled in the treated animal. For the determination of ED50-values, the percentage of receptor occupancy was plotted against dose and the sigmoidal log dose-effect curve of best fit was calculated by non-linear regression analysis, using the GraphPad Prism program.

Sequence of hPDE10A2 (Q9Y233 267-1055): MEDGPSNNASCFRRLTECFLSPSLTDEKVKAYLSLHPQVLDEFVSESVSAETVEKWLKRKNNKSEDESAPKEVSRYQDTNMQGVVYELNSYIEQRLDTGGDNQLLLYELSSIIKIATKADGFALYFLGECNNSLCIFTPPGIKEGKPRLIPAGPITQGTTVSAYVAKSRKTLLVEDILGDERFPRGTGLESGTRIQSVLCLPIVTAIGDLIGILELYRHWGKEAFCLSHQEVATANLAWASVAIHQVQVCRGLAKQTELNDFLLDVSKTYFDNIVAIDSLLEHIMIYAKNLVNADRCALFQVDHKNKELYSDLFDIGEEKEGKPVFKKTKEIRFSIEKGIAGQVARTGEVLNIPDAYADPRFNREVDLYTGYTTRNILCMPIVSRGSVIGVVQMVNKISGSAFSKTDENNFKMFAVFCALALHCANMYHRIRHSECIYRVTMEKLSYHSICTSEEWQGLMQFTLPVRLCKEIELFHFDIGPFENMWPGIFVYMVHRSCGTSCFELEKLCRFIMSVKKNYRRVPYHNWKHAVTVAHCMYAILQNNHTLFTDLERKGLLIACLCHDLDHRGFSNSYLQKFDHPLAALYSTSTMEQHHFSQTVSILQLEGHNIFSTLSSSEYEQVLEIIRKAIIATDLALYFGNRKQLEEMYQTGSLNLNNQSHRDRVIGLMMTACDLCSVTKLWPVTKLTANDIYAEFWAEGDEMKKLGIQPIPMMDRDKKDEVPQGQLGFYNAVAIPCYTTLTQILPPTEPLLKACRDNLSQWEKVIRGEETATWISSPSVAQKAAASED
T1 sequence (O00408 whole entry): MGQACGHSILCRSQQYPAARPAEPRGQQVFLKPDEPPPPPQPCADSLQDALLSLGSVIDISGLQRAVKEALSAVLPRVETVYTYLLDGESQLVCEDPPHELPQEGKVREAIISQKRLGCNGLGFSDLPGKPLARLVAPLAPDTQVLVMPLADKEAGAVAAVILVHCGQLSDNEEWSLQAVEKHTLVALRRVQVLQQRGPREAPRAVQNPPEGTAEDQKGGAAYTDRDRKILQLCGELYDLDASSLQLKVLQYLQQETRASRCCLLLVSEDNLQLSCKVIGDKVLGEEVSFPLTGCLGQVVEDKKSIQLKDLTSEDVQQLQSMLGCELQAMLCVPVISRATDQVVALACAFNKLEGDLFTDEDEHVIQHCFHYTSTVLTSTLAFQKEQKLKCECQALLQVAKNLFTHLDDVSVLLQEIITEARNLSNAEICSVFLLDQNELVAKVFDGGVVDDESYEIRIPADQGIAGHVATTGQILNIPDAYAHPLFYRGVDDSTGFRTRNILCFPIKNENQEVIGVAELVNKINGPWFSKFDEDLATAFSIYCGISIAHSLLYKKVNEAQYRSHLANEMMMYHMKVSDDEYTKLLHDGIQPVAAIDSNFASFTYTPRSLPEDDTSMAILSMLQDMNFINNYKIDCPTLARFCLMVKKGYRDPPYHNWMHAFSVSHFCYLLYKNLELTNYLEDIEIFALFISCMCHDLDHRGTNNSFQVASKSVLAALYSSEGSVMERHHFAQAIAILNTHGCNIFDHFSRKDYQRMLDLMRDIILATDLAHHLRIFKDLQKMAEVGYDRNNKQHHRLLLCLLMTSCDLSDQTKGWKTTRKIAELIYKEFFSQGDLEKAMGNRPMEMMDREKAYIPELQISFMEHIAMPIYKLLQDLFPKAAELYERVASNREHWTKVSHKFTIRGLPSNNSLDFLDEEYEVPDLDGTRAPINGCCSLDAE

SMILES	IC50 [1] [nM]	Emax [1] [%]	hPDE3B Emax [2]	hPDE3B pIC50 [2]	IC50 [3] [nM]	Emax [3] [%]	receptor occupancy at 10 mg/kg ([4]; po, read-out: PDE2 occupancy at 10 mg/kg, route PO (oral), 10 mg/kg, male Wistar rats, striatum, percentage occupancy) [%]	melting point [°C]	receptor occupancy at 10 mg/kg ([4]; route PO (oral), 10 mg/kg, male Wistar rats, striatum, percentage occupancy, read-out: PDE2 occupancy at 10 mg/kg) [%]	receptor occupancy at 10 mg/kg ([4]; route SC (subcutaneous), 10 mg/kg, male Wistar rats, striatum, percentage occupancy, read-out: PDE2 occupancy at 10 mg/kg) [%]
C[C@@H]1CCN(c2nccc3cccc(F)c23)C[C@H]1c1cc(C(F)F)nc2ncnn12 [Compound 20]	37.2	100	81	5.41	269	97	18	179.73	–	–
Cc1cc(C(F)(F)F)cc(N2CC[C@@H](C)[C@H](c3cc(C(F)F)nc4ncnn34)C2)n1 [Compound 21]	61.7	101	93	5.83	269	95	–	124.81	9	–
C[C@@H]1CCN(c2nccc3cccnc23)C[C@H]1c1cc(C(F)F)nc2ncnn12 [Compound 23]	74.1	95	54	<5	661	93	–	111.34	–	5
